Assay results as given in ChEMBL document CHEMBL5442379, “ASAP - SARS-CoV-2 nsp3 macrodomain single point” (2024).

Target: Replicase polyprotein 1ab (Severe acute respiratory syndrome coronavirus 2) (UniProt P0DTD1)
Description: Functional biochemical assay to identify treatments for viral infectious disease that targets SARS-COV-2 nsp3 macrodomain, whereby the mechanism of action displaces an ADP-Ribose modified peptide from the binding site. Utilizing a time-resolved fluorescence method to measure binding by reading the emitted fluorescence intensity in two wavelengths.

COCc1cc(CC(=O)Nc2ncnc3[nH]cnc23)no1
inhibition (Concentration 50.0 uM, Number of replicates 2.0, Standard deviation 0.215 %): 2.97%

CC(C)[C@@H](Nc1ncnc2[nH]ccc12)c1nncn1C
inhibition (Concentration 49.75 uM, Number of replicates 2.0, Standard deviation 0.565 %): 4.59%
inhibition (Concentration 99.5 uM, Number of replicates 2.0, Standard deviation 7.858 %): 10.8%

O=C(CCN(Cc1cccc(Cl)c1)C(=O)C1(O)CCCC1)N1CCNCC1
inhibition (Concentration 49.75 uM, Number of replicates 2.0, Standard deviation 1.82 %): -1.21%
inhibition (Concentration 99.5 uM, Number of replicates 2.0, Standard deviation 0.971 %): -1.78%

Fc1ccc(OC(F)F)c(CNc2cnc3[nH]ncc3c2)c1
inhibition (Concentration 50.0 uM, Number of replicates 2.0, Standard deviation 3.077 %): -6.67%

Cc1cnc(CCNc2ncnc3[nH]ncc23)c(C)c1
inhibition (Concentration 50.0 uM, Number of replicates 2.0, Standard deviation 4.479 %): 4.34%

O=C(c1ccccc1)N1CCC(c2ccn3ncc(C(=O)N4CCc5cccnc54)c3c2)CC1
inhibition (Concentration 49.75 uM, Number of replicates 2.0, Standard deviation 3.564 %): -4.67%
inhibition (Concentration 99.5 uM, Number of replicates 2.0, Standard deviation 0.208 %): -8.02%

OCc1cn([C@@H]2CCCN(c3ncnc4[nH]ccc34)C2)nn1
inhibition (Concentration 50.0 uM, Number of replicates 2.0, Standard deviation 2.708 %): -0.682%

O=C(OCc1ncccc1Cl)c1ncnc2[nH]ccc12
inhibition (Concentration 50.0 uM, Number of replicates 2.0, Standard deviation 2.408 %): 5.06%

OC[C@@H]1CN(c2ncnc3nc[nH]c23)CCC1(F)F
inhibition (Concentration 50.0 uM, Number of replicates 2.0, Standard deviation 0.855 %): 1.75%

O=S(=O)(Nc1cnc2[nH]ncc2c1)c1cnn(C2CCCC2)c1
inhibition (Concentration 50.0 uM, Number of replicates 2.0, Standard deviation 0.633 %): 0.415%

CCn1cc(CNc2nc3[nH]cnc3c(=O)[nH]2)nn1
inhibition (Concentration 50.0 uM, Number of replicates 2.0, Standard deviation 3.758 %): -0.991%

CCN(Cc1cccnc1)C(=O)c1ccc(NC(=O)Nc2ccccc2)cc1
inhibition (Concentration 49.75 uM, Number of replicates 2.0, Standard deviation 4.414 %): 3.63%
inhibition (Concentration 99.5 uM, Number of replicates 2.0, Standard deviation 0.745 %): -7.09%

CN(c1ncnc2[nH]ccc12)[C@H]1CCN(S(C)(=O)=O)C1
inhibition (Concentration 50.0 uM, Number of replicates 2.0, Standard deviation 5.861 %): -0.371%

Cc1nc(C(=O)N2CCC(c3ccn4ncc(C(=O)N5CCCCC5)c4c3)CC2)c(C)[nH]1
inhibition (Concentration 49.75 uM, Number of replicates 2.0, Standard deviation 0.064 %): 16.8%
inhibition (Concentration 99.5 uM, Number of replicates 2.0, Standard deviation 4.92 %): 27.5%

COc1cccc(Cl)c1CNc1ncnc2[nH]ncc12
inhibition (Concentration 50.0 uM, Number of replicates 2.0, Standard deviation 0.519 %): -1.83%

COCc1cc(CNc2nc3[nH]cnc3c(=O)[nH]2)on1
inhibition (Concentration 50.0 uM, Number of replicates 2.0, Standard deviation 1.926 %): 2.98%

Cc1[nH]ncc1CN(C)C(=O)c1cnn2ccc(C3CCN(C(=O)c4ccccc4)CC3)cc12
inhibition (Concentration 49.75 uM, Number of replicates 2.0, Standard deviation 5.917 %): -1.14%
inhibition (Concentration 99.5 uM, Number of replicates 2.0, Standard deviation 7.587 %): 0.307%

O=S(=O)(NC[C@H]1CCOC1)c1cn2c(n1)CCCC2
inhibition (Concentration 50.0 uM, Number of replicates 2.0, Standard deviation 7.062 %): -3.2%

Cc1ncc(NCc2cnc3c(c2)NC(=O)CO3)cc1Cl
inhibition (Concentration 50.0 uM, Number of replicates 2.0, Standard deviation 2.461 %): -0.368%

Clc1cnc(OCCNc2ncnc3[nH]ccc23)c(Cl)c1
inhibition (Concentration 50.0 uM, Number of replicates 2.0, Standard deviation 2.048 %): -4.3%
inhibition (Concentration 100.0 uM, Number of replicates 2.0, Standard deviation 3.465 %): -7.69%

OC[C@H](Cc1ccccc1)Nc1ncnc2[nH]ccc12
inhibition (Concentration 50.0 uM, Number of replicates 2.0, Standard deviation 2.629 %): -1.29%
inhibition (Concentration 100.0 uM, Number of replicates 2.0, Standard deviation 0.62 %): 8.93%

CSc1ccccc1NC(=O)c1ncnc2[nH]ccc12
inhibition (Concentration 50.0 uM, Number of replicates 2.0, Standard deviation 3.62 %): -5.8%

O=C(CCN(Cc1cccc(Cl)c1)C(=O)c1ccc(O)cc1)N1CCNCC1
inhibition (Concentration 49.75 uM, Number of replicates 2.0, Standard deviation 5.17 %): -0.343%
inhibition (Concentration 99.5 uM, Number of replicates 2.0, Standard deviation 10.002 %): -1.63%

FC(F)(F)c1nnc2n1CCN(c1ncnc3[nH]ccc13)C2
inhibition (Concentration 49.75 uM, Number of replicates 2.0, Standard deviation 1.459 %): -1.97%
inhibition (Concentration 99.5 uM, Number of replicates 2.0, Standard deviation 0.538 %): -1%

O=C(CCN(Cc1cccc(Cl)c1)C(=O)C1(F)CCCCC1)N1CCNCC1
inhibition (Concentration 49.75 uM, Number of replicates 2.0, Standard deviation 2.579 %): -3.58%
inhibition (Concentration 99.5 uM, Number of replicates 2.0, Standard deviation 1.426 %): 0.185%

Nc1ncc(C(=O)N(CCC(=O)N2CCNCC2)Cc2cccc(Cl)c2)cn1
inhibition (Concentration 49.75 uM, Number of replicates 2.0, Standard deviation 3.901 %): -2.76%
inhibition (Concentration 99.5 uM, Number of replicates 2.0, Standard deviation 0.039 %): -1.73%

Cc1ccc(NC(=O)c2cnn3ccc(C4CCN(C(=O)c5ccccc5)CC4)cc23)cc1C(=O)O
inhibition (Concentration 49.75 uM, Number of replicates 2.0, Standard deviation 0.305 %): -1.05%
inhibition (Concentration 99.5 uM, Number of replicates 2.0, Standard deviation 2.043 %): -0.624%

Cc1ncc(C(=O)N(CCC(=O)N2CCNCC2)Cc2cccc(Cl)c2)cc1N
inhibition (Concentration 49.75 uM, Number of replicates 2.0, Standard deviation 3.028 %): 1.35%
inhibition (Concentration 99.5 uM, Number of replicates 2.0, Standard deviation 0.599 %): 1.3%

O=C1NC[C@@H](C(=O)N(CCC(=O)N2CCNCC2)Cc2cccc(Cl)c2)O1
inhibition (Concentration 49.75 uM, Number of replicates 2.0, Standard deviation 2.173 %): 0.125%
inhibition (Concentration 99.5 uM, Number of replicates 2.0, Standard deviation 10.437 %): 5.24%

Cc1ccnc(C2CCN(c3ncnc4[nH]ccc34)CC2)n1
inhibition (Concentration 50.0 uM, Number of replicates 2.0, Standard deviation 3.755 %): 3.46%

C[C@@H](O)[C@@H]1CN(C(=O)c2ncnc3[nH]ccc23)CCO1
inhibition (Concentration 50.0 uM, Number of replicates 2.0, Standard deviation 0.15 %): -3.13%

O=C1C[C@H](CNC(=O)c2ccc(NC(=O)Nc3ccccc3)cc2)CCN1
inhibition (Concentration 49.75 uM, Number of replicates 2.0, Standard deviation 1.043 %): 1.22%
inhibition (Concentration 99.5 uM, Number of replicates 2.0, Standard deviation 0.12 %): 4.01%

O=C(CNc1ncnc2[nH]ccc12)N1CCc2ccccc21
inhibition (Concentration 50.0 uM, Number of replicates 2.0, Standard deviation 7.793 %): 1.19%

COC(=O)c1cc2c(Oc3ccccc3C#N)ncnc2[nH]1
inhibition (Concentration 50.0 uM, Number of replicates 2.0, Standard deviation 0.741 %): 2.92%

OC[C@@]1(Cc2ccc(F)cc2)CCN(c2ncnc3[nH]ccc23)C1
inhibition (Concentration 50.0 uM, Number of replicates 2.0, Standard deviation 2.787 %): 5.07%

O=C(c1ccnc(S)c1)N1CCC(c2ccn3ncc(C(=O)N4CCCCC4)c3c2)CC1
inhibition (Concentration 49.75 uM, Number of replicates 2.0, Standard deviation 0.749 %): 20.2%
inhibition (Concentration 99.5 uM, Number of replicates 2.0, Standard deviation 3.677 %): 35.5%

O=S(=O)(Nc1ncccn1)c1ccc2oc3ccccc3c2c1
inhibition (Concentration 50.0 uM, Number of replicates 2.0, Standard deviation 5.51 %): -3%

Cn1cc([C@H]2CCCCN2c2ncnc3[nH]ccc23)cn1
inhibition (Concentration 49.75 uM, Number of replicates 2.0, Standard deviation 3.479 %): 6.39%
inhibition (Concentration 99.5 uM, Number of replicates 2.0, Standard deviation 0.865 %): 8.32%

NC(=O)[C@@H]1CCN(C(=O)c2cnc3[nH]c(=O)[nH]c(=O)c3c2)C1
inhibition (Concentration 50.0 uM, Number of replicates 2.0, Standard deviation 2.086 %): -6.32%

Cc1ccc(O)c(CNc2ncnc3[nH]cnc23)n1
inhibition (Concentration 50.0 uM, Number of replicates 2.0, Standard deviation 1.123 %): 0.262%
inhibition (Concentration 100.0 uM, Number of replicates 2.0, Standard deviation 2.0 %): 6.28%

c1cc(-c2nnc(Sc3ncnc4[nH]ccc34)[nH]2)ccn1
inhibition (Concentration 50.0 uM, Number of replicates 2.0, Standard deviation 4.573 %): 10.7%
inhibition (Concentration 50.0 uM, Number of replicates 2.0, Standard deviation 8.715 %): 5.47%
inhibition (Concentration 100.0 uM, Number of replicates 2.0, Standard deviation 31.914 %): 3.32%

O=C(Nc1ccccc1)Nc1ccc(C(=O)Nc2cnnc(Cl)c2)cc1
inhibition (Concentration 49.75 uM, Number of replicates 2.0, Standard deviation 1.096 %): -1.72%
inhibition (Concentration 99.5 uM, Number of replicates 2.0, Standard deviation 2.694 %): -0.19%

C[C@@H](CO)Nc1ncnc2[nH]c(C(=O)OC(C)(C)C)cc12
inhibition (Concentration 50.0 uM, Number of replicates 2.0, Standard deviation 12.843 %): 10.7%

COc1cc(OC)cc(C(=O)N(CCC(=O)N2CCNCC2)Cc2cccc(Cl)c2)c1
inhibition (Concentration 50.0 uM, Number of replicates 2.0, Standard deviation 1.533 %): -4.53%

Cc1[nH]nc(C(=O)N2CCC(c3ccn4ncc(C(=O)N5CCCCC5)c4c3)CC2)c1C
inhibition (Concentration 49.75 uM, Number of replicates 2.0, Standard deviation 4.553 %): 18%
inhibition (Concentration 99.5 uM, Number of replicates 2.0, Standard deviation 2.151 %): 33.8%

O=C(c1ccnnc1O)N1CCC(c2ccn3ncc(C(=O)N4CCCCC4)c3c2)CC1
inhibition (Concentration 49.75 uM, Number of replicates 2.0, Standard deviation 0.647 %): -7.59%
inhibition (Concentration 99.5 uM, Number of replicates 2.0, Standard deviation 0.871 %): 10.2%

CN1CCOc2cccc(NC(=O)Nc3cnc4[nH]ncc4c3)c21
inhibition (Concentration 50.0 uM, Number of replicates 2.0, Standard deviation 1.985 %): -6.54%

O=C(O)c1ccc(C(=O)N2CCC(c3ccn4ncc(C(=O)N5CCCCC5)c4c3)CC2)o1
inhibition (Concentration 49.75 uM, Number of replicates 2.0, Standard deviation 3.483 %): 40.5%
inhibition (Concentration 99.5 uM, Number of replicates 2.0, Standard deviation 5.512 %): 58.1%

CC1(C)CN(C(=O)c2ccc(NC(=O)Nc3ccccc3)cc2)C[C@@]1(F)C(=O)O
inhibition (Concentration 49.75 uM, Number of replicates 2.0, Standard deviation 0.273 %): -2.57%
inhibition (Concentration 99.5 uM, Number of replicates 2.0, Standard deviation 1.041 %): -5.19%

CN(C[C@H]1CCCN1)C(=O)c1cnn2ccc(C3CCN(C(=O)c4ccccc4)CC3)cc12
inhibition (Concentration 49.75 uM, Number of replicates 2.0, Standard deviation 0.33 %): -7.47%
inhibition (Concentration 99.5 uM, Number of replicates 2.0, Standard deviation 2.559 %): -6.59%

O=C1CC[C@@H](CNC(=O)c2cnn3ccc(C4CCN(C(=O)c5ccccc5)CC4)cc23)N1
inhibition (Concentration 49.75 uM, Number of replicates 2.0, Standard deviation 1.276 %): -2.32%
inhibition (Concentration 99.5 uM, Number of replicates 2.0, Standard deviation 4.674 %): -1.47%

CC(C)(C[C@@H]1CCCN(c2ncnc3[nH]ccc23)C1)C(N)=O
inhibition (Concentration 50.0 uM, Number of replicates 2.0, Standard deviation 4.235 %): -1.59%
